Residue numbers refer to the chain shown, from its start. Where “and” joins values, the source holds several entries; their conditions need not be identical. Equal entries are not always repeated. Where two headings read alike, the source gives them in different places.
Columns and labels:
T2R38 [1] = target: T1, T2R38 (Homo sapiens, UniProt P59533, A49P/I296V); test: DAF-FM imaging of NO production in human sinonasal ALI cultures; assay type: cell-based; conditions: for Effect on C4HSL-induced NO production in taster cultures: C4HSL 200 μM, U73122 5 μM, 20 min pre-incubation; for DAF-FM fluorescence increase: 5 min, PAV/PAV
T1 construct: T2R38 is expressed in human upper airway epithelium; endogenous in cells; host or cells: primary human sinonasal epithelial cells, air-liquid interface cultures from surgical patients
T1 sequence (P59533 1-333 A49P/I296V): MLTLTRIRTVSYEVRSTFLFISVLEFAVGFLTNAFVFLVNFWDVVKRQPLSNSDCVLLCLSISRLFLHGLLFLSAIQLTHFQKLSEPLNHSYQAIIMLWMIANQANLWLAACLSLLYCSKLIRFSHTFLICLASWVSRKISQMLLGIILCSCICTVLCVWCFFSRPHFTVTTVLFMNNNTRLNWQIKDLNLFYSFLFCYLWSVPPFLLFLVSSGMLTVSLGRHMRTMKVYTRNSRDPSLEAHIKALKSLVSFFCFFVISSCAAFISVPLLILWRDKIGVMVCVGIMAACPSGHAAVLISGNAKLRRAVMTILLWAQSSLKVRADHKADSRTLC

Pseudomonas aeruginosa [2] = test: Kill assay with ASL from stimulated sinonasal ALI cultures (CFU plating); assay type: cell-based
beta-defensin 2 = test: Beta-defensin 2 secretion by sinonasal cultures; assay type: cell-based, human; conditions: denatonium- or absinthin-stimulated cultures
T2R38 [3] = target: T2, T2R38 (Homo sapiens, UniProt P59533, A262V); test: Fluo-4 Ca2+ imaging in primary human sinonasal ALI cultures; assay type: cell-based; conditions: AVI/AVI
T2 construct: T2R38 is expressed in human upper airway epithelium; endogenous in cells; host or cells: primary human sinonasal epithelial cells, air-liquid interface cultures from surgical patients
T2 sequence (P59533 1-333 A262V): T1 sequence (P59533 1-333 A49P/I296V) with P49A, A262V, V296I

T2R38 [4] = target: T1, T2R38; test: as above; assay type: cell-based; conditions: for Average peak Fluo-4 F/Fo after 5 min stimulation with C6HSL: 200 μM C6HSL
T2R38 [5] = test: as above; assay type: cell-based
sinonasal ALI cultures [6] = assay type: cell-based, human
Pseudomonas aeruginosa [7] = test system: Pseudomonas aeruginosa
nasal epithelial cells = test: Fluo-4 calcium signaling with denatonium in nasal epithelial cells (sinonasal ALI cultures); assay type: cell-based, human; conditions: for Effect on denatonium induced calcium signaling: 2 mM sucrose or 1 mM sucralose
PAV-TAS2R38 = target: T3, PAV-TAS2R38 (Homo sapiens, UniProt P59533, A49P/I296V); test: Fluo-4 calcium mobilization in HEK293 cells expressing hTAS2R38 (PAV) and Gα16gustducin44; assay type: cell-based; conditions: PAV variant
T3 construct: first 45 amino acids of rat SSTR-3 (N); host or cells: HEK293 (peakRapid), transient transfection, pcDNA3.1(+)
T3 sequence (P59533 1-333 A49P/I296V): T1 sequence (P59533 1-333 A49P/I296V)

AVI-TAS2R38 = target: T4, AVI-TAS2R38 (Homo sapiens, UniProt P59533, A262V); test: Fluo-4 calcium mobilization in HEK293 cells expressing hTAS2R38 (AVI) and Gα16gustducin44; assay type: cell-based; conditions: AVI variant
T4 construct: first 45 amino acids of rat SSTR-3 (N); host or cells: HEK293 (peakRapid), transient transfection, pcDNA3.1(+)
T4 sequence (P59533 1-333 A262V): T1 sequence (P59533 1-333 A49P/I296V) with P49A, A262V, V296I

T2R38 [8] = test: DAF-FM imaging of NO production in human sinonasal ALI cultures; assay type: cell-based; conditions: for DAF-FM fluorescence increase: 5 min, PAV/AVI
T2R38 [9] = target: T2, T2R38; test: as above; assay type: cell-based; conditions: for DAF-FM fluorescence increase: 5 min, AVI/AVI
sinonasal ALI cultures [10] = test: Mucociliary transport velocity of fluorescent microspheres on sinonasal ALI cultures; assay type: cell-based, human; conditions: for Concentration required to stimulate a significant increase in mucociliary transport: PAV/PAV cultures
[11] = test system: acutely dissociated sinonasal ciliated epithelial cells; test: Ca2+ and DAF-FM responses in acutely dissociated sinonasal ciliated cells; assay type: cell-based, human

COc1ccc2c(c1)CC[C@@H]1[C@@H]2CC[C@]2(C)[C@@H](NCCCCCCN3C(=O)C=CC3=O)CC[C@@H]12 [U73122]
Effect on C4HSL-induced NO production in taster cultures (T2R38 [1]): blocked
Effect on denatonium-induced antimicrobial response (Pseudomonas aeruginosa [2]; U73122 20 μM): inhibited
Effect on beta-defensin secretion (beta-defensin 2): may be blocked

Nc1ncnc2c1ncn2[C@@H]1O[C@H](COP(=O)(O)OP(=O)(O)OP(=O)(O)O)[C@@H](O)[C@H]1O [ATP]
Peak Fluo-4 F/Fo during 10 μM ATP stimulation (T2R38 [3]; 10 μM ATP): 2.90±0.09
Peak Fluo-4 F/Fo during 10 μM ATP stimulation (T2R38 [4]; PAV/PAV): 2.96±0.08
Peak Fluo-4 F/Fo during 10 μM ATP stimulation (T2R38 [4]; PAV/PAV+U73122): 2.82±0.1
Peak F/Fo during stimulation with 1 μM ATP (T2R38 [5]; L-NAME (50 μM)): 2.0±0.26
Peak F/Fo during stimulation with 1 μM ATP (T2R38 [5]; control (no L-NAME)): 1.9±0.21
ATP-induced Ca2+ responses versus TAS2R38 genotype (T2R38 [5]; ATP 1 μM, PAV/PAV, PAV/AVI, AVI/AVI cultures): did not correlate with TAS2R38 genotype
Peak CBF after ATP stimulation between genotypes (sinonasal ALI cultures [6]): not significantly different between cultures of different genotypes
Bactericidal response on stimulation of cells (Pseudomonas aeruginosa [2]; ATP stimulation): no bactericidal response was observed

CCCCCC(=O)N[C@H]1CCOC1=O [C6HSL, N-Hexanoyl-L-homoserine lactone]
Average peak Fluo-4 F/Fo after 5 min stimulation with C6HSL (T2R38 [3]; 200 μM C6HSL): 1.21±0.09
Average peak Fluo-4 F/Fo after 5 min stimulation with C6HSL (T2R38 [4]; PAV/PAV): 1.52±0.074
Average peak Fluo-4 F/Fo after 5 min stimulation with C6HSL (T2R38 [4]; PAV/PAV+U73122): 1.10±0.09

COc1ccc2c(c1)CC[C@@H]1[C@@H]2CC[C@]2(C)[C@@H](NCCCCCCN3C(=O)CCC3=O)CC[C@@H]12 [U73343]
Effect on C4HSL-induced NO production in taster cultures (T2R38 [1]): had no effect on NO production
Effect on beta-defensin secretion (beta-defensin 2): had no effect

CC1(C)N([O])C(c2ccc(C(=O)O)cc2)=[N+]([O-])C1(C)C [cPTIO]
% green (viable) PAO1 (Pseudomonas aeruginosa [7]): 93±2%

OC[C@H]1O[C@H](O[C@]2(CCl)O[C@H](CCl)[C@@H](O)[C@@H]2O)[C@H](O)[C@@H](O)[C@H]1Cl [sucralose]
Effect on denatonium induced calcium signaling (nasal epithelial cells): inhibits denatonium induced calcium signaling

OCc1ccccc1O[C@@H]1O[C@H](CO)[C@@H](O)[C@H](O)[C@H]1O [salicin]
Peak Fluo-4 fluorescence (ΔF/F) (PAV-TAS2R38; 10 mM): 1.4±0.3%
Peak Fluo-4 fluorescence (ΔF/F) (AVI-TAS2R38; 10 mM): 3±1%

CC(=O)NC(C(=O)O)C(C)(C)SN=O (racemic) [SNAP, S-Nitroso-N-Acetyl-D,L-Penicillamine]
DAF-FM responses between the genotypes (control stimuli) (T2R38 [8]; SNAP 100 μM, ionomycin): did not yield differential DAF-FM responses between the genotypes

colistin sulfate
% green (viable) PAO1 (Pseudomonas aeruginosa [7]): 4±2%

OC[C@H]1O[C@@](CO)(O[C@H]2O[C@H](CO)[C@@H](O)[C@H](O)[C@H]2O)[C@@H](O)[C@@H]1O [sucrose]
Effect on denatonium induced calcium signaling (nasal epithelial cells): inhibits denatonium induced calcium signaling

COc1ccc(OC(C)C(=O)O)cc1 (stereo not drawn) [lactisole]
Effect on glucose-mediated inhibition of bacterial kill (Pseudomonas aeruginosa [2]; lactisole 5 mM): reduced or reversed the glucose-mediated inhibition of bacterial kill
Effect on sucrose/sucralose inhibition of denatonium calcium signaling (nasal epithelial cells; sweet receptor antagonist): substantially eliminates the inhibition

CC(C)[C@]12CC(=O)[C@H](C)[C@H]1C2 [thujone]
NO production with non-T2R38 bitter ligands (T2R38 [1]): did not stimulate NO production
Ca2+ responses in sinonasal ALI cultures (nasal epithelial cells; non-T2R38 bitter agonists): not

CCCc1cc(=O)[nH]c(=S)[nH]1 [PROP, 6-n-propylthiouracil]
Intracellular DAF-FM fluorescence (NO production) (T2R38 [1]; apical application, PAV/PAV (taster) cells): stimulated an increase in intracellular DAF-FM fluorescence

COC(=O)[C@H](N)CCCN=C(N)N[N+](=O)[O-] [D-NAME]
Effect on HSL-stimulated CBF increase (sinonasal ALI cultures [6]): not

COC(=O)[C@@]1(OC)C[C@H]2O[C@]1(C)n1c3ccccc3c3c4c(c5c6ccccc6n2c5c31)C(=O)N(C)C4 [KT5823]
Effect on HSL-stimulated CBF increase (sinonasal ALI cultures [6]): blocked

sodium thiocyanate [NaSCN]
F/Fo after stimulation with 5 mM NaSCN (T2R38 [5]; +L-NAME (50 μM)): 1.24±0.07
F/Fo after stimulation with 5 mM NaSCN (T2R38 [5]; control (no L-NAME)): 1.33±0.08
DAF-FM fluorescence increase after 5 min NaSCN (T2R38 [9]): 61±23 units
DAF-FM fluorescence increase after 5 min NaSCN (T2R38 [1]): 202±38 units

C[C@H](CCC(=O)O)C[C@H](C)C[C@H](C)C(=O)/C=C(\O)[C@H](C)C[C@H](C)C/C=C/[C@@H](C)[C@@H](O)[C@@H](C)[C@@H](O)C[C@@H]1CC[C@@](C)([C@H]2CC[C@@](C)([C@@H](C)O)O2)O1 [ionomycin]
DAF-FM responses between the genotypes (control stimuli) (T2R38 [8]): did not yield differential DAF-FM responses between the genotypes

CCCC(=O)N[C@H]1CCOC1=O [C4HSL, N-butyryl-L-homoserine lactone]
Fluo-4 fluorescence after 5 min C4HSL (T2R38 [3]; 200 μM C4HSL): 1.10±0.04
Fluo-4 fluorescence after 5 min C4HSL (T2R38 [4]; 200 μM C4HSL, PAV/PAV): 1.29±0.03
Fluo-4 fluorescence after 5 min C4HSL (T2R38 [5]; 200 μM C4HSL, PAV/AVI): 1.14±0.04
Peak Fluo-4 fluorescence (ΔF/F) (PAV-TAS2R38; 200 μM): 61±2%
Peak Fluo-4 fluorescence (ΔF/F) (AVI-TAS2R38; 200 μM): 0.3±0.4%
DAF-FM fluorescence increase (T2R38 [9]; 10 μM): 50±2
DAF-FM fluorescence increase (T2R38 [9]; 100 μM): 69±8
DAF-FM fluorescence increase (T2R38 [1]; 10 μM): 132±14
DAF-FM fluorescence increase (T2R38 [1]; 100 μM): 230±30
DAF-FM fluorescence increase (T2R38 [8]; 10 μM): 68±6
DAF-FM fluorescence increase (T2R38 [8]; 100 μM): 130±17
Peak CBF with C4HSL (sinonasal ALI cultures [6]): 1.17±0.02 and 1.02±0.02
Increase in velocity (sinonasal ALI cultures [10]; 0.1 μM, PAV/PAV): 1.07±0.02
Increase in velocity (sinonasal ALI cultures [10]; 1 μM, PAV/PAV): 1.12±0.03
Increase in velocity (sinonasal ALI cultures [10]; 10 μM, PAV/PAV): 1.21±0.04
Increase in velocity (sinonasal ALI cultures [10]; 100 μM, AVI/AVI): 1.12±0.03
Increase in velocity (sinonasal ALI cultures [10]; 100 μM, PAV/PAV): 1.47±0.07
Concentration required to stimulate a significant increase in mucociliary transport (sinonasal ALI cultures [10]): 10 µM
Ca2+ responses in acutely dissociated sinonasal ciliated cells [11]: occurred

CCCCCCCCCC(=O)CC(=O)N[C@H]1CCOC1=O [C12HSL, N-3-oxo-dodecanoyl-L-homoserine lactone]
Fluo-4 fluorescence after 10 min C12HSL stimulation (T2R38 [3]; 100 μM C12HSL): 1.14±0.01
Fluo-4 fluorescence after 10 min C12HSL stimulation (T2R38 [4]; 100 μM C12HSL, PAV/PAV): 1.52±0.08
Fluo-4 fluorescence after 10 min C12HSL stimulation (T2R38 [5]; 100 μM C12HSL, PAV/AVI): 1.28±0.04
Peak Fluo-4 fluorescence (ΔF/F) (PAV-TAS2R38; 100 μM): 73±5%
Peak Fluo-4 fluorescence (ΔF/F) (AVI-TAS2R38; 100 μM): 3±2%
DAF-FM fluorescence increase (T2R38 [9]; 10 μM): 44±9
DAF-FM fluorescence increase (T2R38 [9]; 100 μM): 64±16
DAF-FM fluorescence increase (T2R38 [1]; 10 μM): 235±20
DAF-FM fluorescence increase (T2R38 [1]; 100 μM): 351±65
DAF-FM fluorescence increase (T2R38 [8]; 10 μM): 77±13
DAF-FM fluorescence increase (T2R38 [8]; 100 μM): 109±25
Peak CBF with C12HSL (sinonasal ALI cultures [6]): 1.25±0.05 and 1.03±0.01
Increase in velocity (sinonasal ALI cultures [10]; 0.1 μM, PAV/PAV): 1.09±0.02
Increase in velocity (sinonasal ALI cultures [10]; 1 μM, PAV/PAV): 1.23±0.04
Increase in velocity (sinonasal ALI cultures [10]; 10 μM, PAV/PAV): 1.48±0.04
Increase in velocity (sinonasal ALI cultures [10]; 100 μM, AVI/AVI): 1.14±0.03
Increase in velocity (sinonasal ALI cultures [10]; 100 μM, PAV/PAV): 1.64±0.04
Concentration required to stimulate a significant increase in mucociliary transport (sinonasal ALI cultures [10]): 1 µM
